Here are results for one molecule from ChEMBL document CHEMBL5365420, “Kinetics, Thermodynamics, and Structural Effects of Quinoline-2-Carboxylates, Zinc-Binding Inhibitors of New Delhi Metallo-β-lactamase-1 Re-sensitizing Multidrug-Resistant Bacteria for Carbapenems” (J Med Chem, 2023).

Bounds are passed on as bounds.

Experiment [1] addresses Metallo-beta-lactamase type 2 (Bacteria, UniProt C7C422).
Description: Binding affinity to C-terminal 6His-tagged full length biotin-labeled NDM-1 (unknown origin) expressed in Escherichia coli BL21-DE3 assessed as dissociation constant by BLI assay
The test system of experiment [2] is Escherichia coli. As to the kind of experiment: Antibacterial activity against clinical isolate Escherichia coli K12 J53-ST10 699/15 expressing blaNDM-1 assessed as meropenem MIC at 72.88 uM measured after 20 hrs by broth microdilution assay (reference value: 24 mg/L). The format is functional.
Experiment [3] has as its system Escherichia coli. As to the kind of experiment: Antibacterial activity against clinical isolate Escherichia coli K12 J53-ST10 684/18 expressing blaNDM-1 co-expressing blaCMY-2 and blaOXA-10 assessed as meropenem MIC at 72.88 uM measured after 20 hrs by broth microdilution assay (reference value: 24 mg/L). It is filed as functional.
For experiment [4], the target named is T1, 72 kDa type IV collagenase (Homo sapiens, UniProt P08253). Kind of experiment: Inhibition of human recombinant MMP-2 CD at 10 uM using OMNIMMP as substrate incubated for 30 mins by fluorescence based analysis relative to control.
Target sequence in this assay (P08253 110-660 limits assumed): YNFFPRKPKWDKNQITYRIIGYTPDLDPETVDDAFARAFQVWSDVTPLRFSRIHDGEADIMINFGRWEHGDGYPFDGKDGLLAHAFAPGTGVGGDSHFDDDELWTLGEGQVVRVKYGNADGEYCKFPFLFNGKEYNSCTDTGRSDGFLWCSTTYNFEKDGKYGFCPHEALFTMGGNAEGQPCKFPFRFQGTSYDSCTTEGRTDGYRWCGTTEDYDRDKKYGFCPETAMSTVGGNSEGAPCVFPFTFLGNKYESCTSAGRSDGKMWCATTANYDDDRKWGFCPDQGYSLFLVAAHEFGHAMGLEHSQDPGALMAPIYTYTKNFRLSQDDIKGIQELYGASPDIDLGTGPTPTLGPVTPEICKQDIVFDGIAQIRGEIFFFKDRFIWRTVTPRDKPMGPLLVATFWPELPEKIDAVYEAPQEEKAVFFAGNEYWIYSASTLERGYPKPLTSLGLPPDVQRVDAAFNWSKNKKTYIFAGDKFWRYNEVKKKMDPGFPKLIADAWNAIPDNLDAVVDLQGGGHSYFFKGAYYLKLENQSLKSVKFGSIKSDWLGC
The subject of the next experiment is Acinetobacter baumannii. Kind of experiment: Antibacterial activity against clinical isolate Acinetobacter baumannii IC 19/09 expressing blaNDM-1 co-expressing blaOXA-64 assessed as meropenem MIC at 72.88 uM measured after 20 hrs by broth microdilution assay (reference value: 24 mg/L). It is filed as functional.
Experiment [5] concerns Escherichia coli. Kind of experiment: Antibacterial activity against clinical isolate Escherichia coli 371/12 expressing blaNDM-7 co-expressing blaCTX-M-15 and blaOXA-1 assessed as meropenem MIC at 72.88 uM measured after 20 hrs by broth microdilution assay (reference value: 24 mg/L). The format is functional.
In experiment [6] the test system is Escherichia coli. As to the kind of experiment: Antibacterial activity against clinical isolate Escherichia coli 371/12 expressing blaNDM-7 co-expressing blaCTX-M-15 and blaOXA-1 assessed as meropenem MIC at 36.44 uM measured after 20 hrs by broth microdilution assay (reference value: 12 mg/L). It is filed as functional.
In experiment [7] the test system is Klebsiella pneumoniae. Kind of experiment: Antibacterial activity against clinical isolate Klebsiella pneumoniae ST1493/10 expressing blaNDM-1 co-expressing blaCMY-2like/blaTEM-1/blaCTX-M-15/blaSHV-28/blaOXA-1 and blaOXA-9 assessed as meropenem MIC at 36.44 uM measured after 20 hrs by broth microdilution assay (reference value: 12 mg/L). It is filed as functional.

The test system of experiment [8] is Klebsiella pneumoniae. Kind of experiment: Antibacterial activity against clinical isolate Klebsiella pneumoniae 62/07 expressing blaVIM-19 co-expressing blaSHV-1/blaCTX-M-14 and blaCMY-4 assessed as meropenem MIC at 72.88 uM measured after 20 hrs by broth microdilution assay (reference value: 24 mg/L). It is filed as functional.
In experiment [9] the target is T1, 72 kDa type IV collagenase. Kind of experiment: Binding affinity to human recombinant MMP-2 CD assessed as inhibition constant using OMNIMMP as substrate incubated for 30 mins by fluorescence based analysis.
Target sequence in this assay (P08253 whole entry): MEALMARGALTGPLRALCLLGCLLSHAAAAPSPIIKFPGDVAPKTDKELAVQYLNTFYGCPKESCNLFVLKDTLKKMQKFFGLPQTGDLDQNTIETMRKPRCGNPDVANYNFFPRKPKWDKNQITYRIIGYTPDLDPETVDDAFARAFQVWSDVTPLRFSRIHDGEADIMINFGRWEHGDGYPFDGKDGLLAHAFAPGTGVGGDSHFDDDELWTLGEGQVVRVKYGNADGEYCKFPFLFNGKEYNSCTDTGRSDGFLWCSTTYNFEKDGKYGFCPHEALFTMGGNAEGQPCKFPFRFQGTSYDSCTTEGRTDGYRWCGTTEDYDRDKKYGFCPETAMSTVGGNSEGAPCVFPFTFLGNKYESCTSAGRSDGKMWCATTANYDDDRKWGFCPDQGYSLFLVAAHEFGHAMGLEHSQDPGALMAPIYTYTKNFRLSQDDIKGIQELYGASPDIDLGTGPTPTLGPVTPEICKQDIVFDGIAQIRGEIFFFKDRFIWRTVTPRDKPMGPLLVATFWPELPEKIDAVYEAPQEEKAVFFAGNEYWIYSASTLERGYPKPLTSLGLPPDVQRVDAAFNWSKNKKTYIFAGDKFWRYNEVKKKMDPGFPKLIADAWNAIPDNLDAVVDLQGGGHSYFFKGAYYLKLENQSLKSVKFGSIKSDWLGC
The target in experiment [10] is Metallo-beta-lactamase type 2 (Bacteria) (UniProt C7C422).
Metallo-beta-lactamase type 2 (Bacteria), sequence (C7C422 whole entry): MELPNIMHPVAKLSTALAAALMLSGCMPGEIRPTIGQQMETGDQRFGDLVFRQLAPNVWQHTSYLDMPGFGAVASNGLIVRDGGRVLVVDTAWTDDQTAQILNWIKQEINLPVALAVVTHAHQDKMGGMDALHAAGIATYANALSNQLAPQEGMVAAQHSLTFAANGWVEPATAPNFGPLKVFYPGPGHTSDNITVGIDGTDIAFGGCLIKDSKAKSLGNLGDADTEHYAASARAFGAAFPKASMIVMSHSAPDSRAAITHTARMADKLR
Description: Binding affinity to C-terminal 6His-tagged full length truncated NDM-1 (unknown origin) expressed in Escherichia coli BL21-DE3 assessed as change in entropy by isothermal titration calorimetric analysis

Metallo-beta-lactamase type 2, sequence (C7C422 whole entry): as above

`O=C(O)c1ccc2cccc(NS(=O)(=O)c3ccccn3)c2n1` registered a Kd in experiment [1] of 14.1 µM. For the same molecule, the MIC in the experiment with Escherichia coli [2] is no more than 0.125 µg/mL; in the experiment on Escherichia coli [3], no more than 0.125 µg/mL; in the experiment with Acinetobacter baumannii, 1 µg/mL; with Escherichia coli [5], no more than 0.125 µg/mL; with Escherichia coli [6], 8 µg/mL; in the experiment on Klebsiella pneumoniae [7], 2 µg/mL. Moreover, the MIC with Klebsiella pneumoniae [8] worked out at 0.25 µg/mL. In addition, the inhibition in experiment [4] is greater than 90%. Moreover, the inhibition constant (Ki) in [9] is 5.78 µM. Further, the -TdeltaS in [10] is -12.2 kJ/mol.
